pIC50: −log10 of the molar value.
Legend:
[1] = target: T1, hERG potassium currents (CHO-K1 cells stably transfected with hERG) (Homo sapiens, UniProt Q12809); test: Automated whole-cell patch-clamp hERG assay; assay type: cell-based; settings: for pIC50: Qpatch, tail current, CHO-K1 cells, 0.39 μM to 100 μM cumulatively; for IC50 ratio hERG/mPGEs-1: ratio of hERG IC50 to human mPGEs-1 IC50
T1 construct: expressed in transfected cells; host or cells: CHO-K1 cells (American Tissue Culture Collection), stably transfected
T1 sequence (Q12809 whole entry): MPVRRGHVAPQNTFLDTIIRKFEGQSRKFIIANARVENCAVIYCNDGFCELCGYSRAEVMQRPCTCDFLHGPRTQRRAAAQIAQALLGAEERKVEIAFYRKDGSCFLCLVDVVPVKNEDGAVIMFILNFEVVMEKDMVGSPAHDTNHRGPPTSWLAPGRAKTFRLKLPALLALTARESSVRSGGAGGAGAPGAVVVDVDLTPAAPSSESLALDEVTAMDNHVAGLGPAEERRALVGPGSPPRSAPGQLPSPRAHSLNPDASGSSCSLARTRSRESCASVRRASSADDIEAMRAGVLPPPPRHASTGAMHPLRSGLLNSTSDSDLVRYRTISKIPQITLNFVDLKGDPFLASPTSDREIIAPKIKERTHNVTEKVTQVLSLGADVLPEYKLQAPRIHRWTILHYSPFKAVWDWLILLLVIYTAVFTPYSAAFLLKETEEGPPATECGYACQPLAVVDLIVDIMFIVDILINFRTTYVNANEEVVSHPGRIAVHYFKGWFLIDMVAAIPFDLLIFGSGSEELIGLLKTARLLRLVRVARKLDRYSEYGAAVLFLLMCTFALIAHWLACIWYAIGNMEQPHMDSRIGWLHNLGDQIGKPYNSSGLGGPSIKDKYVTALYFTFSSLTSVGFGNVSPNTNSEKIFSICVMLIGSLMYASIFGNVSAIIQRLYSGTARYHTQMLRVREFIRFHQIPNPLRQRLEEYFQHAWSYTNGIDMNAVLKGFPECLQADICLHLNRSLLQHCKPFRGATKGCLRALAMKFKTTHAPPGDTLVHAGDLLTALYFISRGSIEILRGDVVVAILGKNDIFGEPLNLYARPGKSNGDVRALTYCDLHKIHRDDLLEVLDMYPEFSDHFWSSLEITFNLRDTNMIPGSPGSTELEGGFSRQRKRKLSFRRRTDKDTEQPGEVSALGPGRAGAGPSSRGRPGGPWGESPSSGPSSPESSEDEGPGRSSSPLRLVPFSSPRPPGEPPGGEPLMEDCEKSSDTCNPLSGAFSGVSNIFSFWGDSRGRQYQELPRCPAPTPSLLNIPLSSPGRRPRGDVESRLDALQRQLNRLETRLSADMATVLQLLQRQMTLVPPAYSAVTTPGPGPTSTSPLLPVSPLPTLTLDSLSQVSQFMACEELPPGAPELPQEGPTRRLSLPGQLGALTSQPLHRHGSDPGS
Experimental: The automated whole-cell patch-clamp hERG assay uses CHO-K1 cells obtained from American Tissue Culture Collection. hERG cDNA (GenBank sequence NM_000238) was subcloned into pSI vector (Promega). The CHO-K1 cells were co-transfected with this construct and pPUR (containing puromycin selective marker, BD Bioscience). After selection in puromycin for 10 days, single colonies were selected and verified with hERG potassium currents. The stably transfected cells were cultured in F-12 Kaighn's Nutrient Mixture medium (Invitrogen)+10% FBS at 37 C for 1-3 days. Subsequently the cells were harvested by trypsination and kept in serum free medium at room temperature before recording. The cells were washed and resuspended in extracellular solution before being applied to the patch clamp sites.
After whole cell configuration was achieved, the cell was held at −80 mV. A 50 millisecond pulse to −40 mV was delivered to measure the leaking current, which was subtracted from the tail current on-line. Then the cell was de-polarized to +20 mV for 2 seconds, followed by a second pulse to −40 mV to reveal hERG tail current. The paradigm was delivered once every 5 seconds to monitor the current amplitude. The extracellular solution (control) was applied first and the cell was stabilized in extracellular solution for 5 minutes. Then the test compound was applied from low concentrations (0.39 μM) to high concentrations (100 μM) cumulatively. The cell was incubated with each test concentration for 5 minutes. During the incubation, the cell was repeatedly stimulated using the voltage protocol described above, and the tail current amplitude was continuously monitored.
Data were acquired by Qpatch (Sophion Bioscience) and the degree of inhibition (%) was obtained by measuring the tail current amplitude before and after test compound incubation (the difference in current was normalized to control and multiplied by 100 to obtain the percent of inhibition). Concentration (log) response curves were fitted to a logistic equation (three parameters assuming complete block of the current at very high test compound concentrations) to generate estimates of the 50% inhibitory concentration (IC50). The concentration-response relationship of each compound was constructed from the percentage reductions of current amplitude by sequential concentrations (0.39 μM to 100 μM).
Further background information on the hERG assay is available in Expert Opin. Ther. Targets (2006) 10(2):319-327.

[2] = target: T2, recombinant membrane-bound human mPGEs-1 (Homo sapiens, UniProt O14684); test: Thiobarbituric acid assay (TBA-MDA assay), inhibition of mPGEs-1; assay type: biochemical; settings: arithmetic mean values, human mPGEs-1 TBA-MDA assay
T2 sequence (O14684 1-152): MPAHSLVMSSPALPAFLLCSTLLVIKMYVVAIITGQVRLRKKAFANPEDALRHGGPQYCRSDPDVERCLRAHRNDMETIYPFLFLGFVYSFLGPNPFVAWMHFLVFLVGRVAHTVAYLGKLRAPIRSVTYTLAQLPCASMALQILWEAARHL
Source text: Malondialdehyde is a product of lipid peroxidation and reacts with thiobarbituric acid forming a red product that absorbs light at 535 nm (W. G. Niehaus, Jr and B. Samuelsson, Eur. J. Biochem 6, 126 (1968)) and is also fluorescent. The extinction coefficient of the TBA-MDA conjugate is 1.56×10^5 M^−1 cm^−1 (E. D. Wills. Biochem. J. 113, 315 (1969). The method used for detection of inhibition of mPGEs-1 is based on the detection of the amount of remaining PGH2. This method was described more than 20 years ago by Basevich et al (Bioorg. Khim. 1983, 9(5), 658-665).
The assay used was a modified variant and used citric acid instead of the TCA-TBA-HCl reagent described in the original assay. In this assay, recombinant membrane-bound human mPGEs-1 was incubated with PGH2. The reaction was stopped by adding citric acid to a final pH 3 and a large excess of iron(II) chloride (20 mM) to convert any remaining PGH2 into MDA and 12-HHT. TBA reagent was finally added (0.67%) and the samples were heated at 80° C. for 30 min. The fluorescence of the conjugate was measured at 485/545 nm.
The product of mPGEs-1 (PGE2) was not measured directly in this assay, but rather the remaining substrate (PGH2) indirectly by adding FeCl2 that converts PGH2 into MDA and 12-HHT. As a positive control, a known mPGEs-1 inhibitor, MK-886, was used and the inhibition afforded by the new inhibitors was compared with that obtained from MK-886.

Compound | pIC50 [2] | pIC50 [1] | IC50 ratio hERG/mPGEs-1 [1]
Cc1cc2c(cc1Cl)nc(N1CCC(C(=O)N[C@@H]3CCOC3)CC1)n2-c1ccc(C(F)(F)F)cn1 [Comparative Example 3, (R)-1-(5-chloro-6-methyl-1-(5-(trifluoromethyl)pyridin-2-yl)-1H-benzo[d]imidazol-2-yl)-N-(tetrahydrofuran-3-yl)-piperidine-4-carboxamide] | – | 4.72 | 328
Cc1cc2nc(N3CCC(C(=O)N[C@@H]4CCOC4)CC3)n(-c3ccc(C(F)(F)F)cn3)c2cc1Cl [Comparative Example 4, (R)-1-(6-chloro-5-methyl-1-(5-(trifluoromethyl)pyridin-2-yl)-1H-benzo[d]imidazol-2-yl)-N-(tetrahydrofuran-3-yl)-piperidine-4-carboxamide] | – | 4.85 | 304
Cc1cc2nc(N3CCC(C(=O)N[C@H]4COC[C@@H]4O)CC3)n(-c3cccc(C(F)(F)F)n3)c2cc1Cl [Example 2, 1-(6-chloro-5-methyl-1-(6-(trifluoromethyl)pyridin-2-yl)-1H-benzo[d]imidazol-2-yl)-N-((3S,4R)-4-hydroxytetrahydrofuran-3-yl)piperidine-4-carboxamide] | 7.49 | < 4.00 | >3125

Second part, led by results:

pIC50 [2] | Compound | pIC50 [1] | IC50 ratio hERG/mPGEs-1 [1]
7.62 | O=C(N[C@@H]1CCOC1)C1CCN(c2nc3cc(Cl)c(Cl)cc3n2-c2cccc(C(F)(F)F)n2)CC1 [Comparative Example 5, (R)-1-(5,6-dichloro-1-(6-(trifluoromethyl)pyridin-2-yl)-1H-benzo[d]imidazol-2-yl)-N-(tetrahydrofuran-3-yl)piperidine-4-carboxamide] | 5.68 | 88
7.42 | Cc1cc2c(cc1Cl)nc(N1CCC(C(=O)N[C@H]3COC[C@@H]3O)CC1)n2-c1cccc(C(F)(F)F)n1 [Example 1, 1-(5-chloro-6-methyl-1-(6-(trifluoromethyl)pyridin-2-yl)-1H-benzo[d]imidazol-2-yl)-N-((3S,4R)-4-hydroxytetrahydrofuran-3-yl)piperidine-4-carboxamide] | 4.42 | 1000

From patent US20160194308A1, “NOVEL PIPERIDINYL BENZOIMIDAZOLE DERIVATIVES AS MPGES-1 INHIBITORS” (NovaSAID AB, priority 2013, published 2016)
